Measurements: patent US11981661B2, “Heterocyclic compounds” (Hoffmann-La Roche Inc., priority 2020, dated 2024)

target: T1, MAGL (Homo sapiens, UniProt Q99685); assay: 2-AG assay (MAGL inhibitory activity, hydrolysis of 2-arachidonoylglycerol followed by mass spectrometry); format: biochemical; conditions: 50 pM MAGL, 8 μM 2-arachidonoylglycerol, 15 min preincubation, 30 min incubation at RT, concentration range 12.5 μM to 0.8 pM
T1 sequence (Q99685 1-303): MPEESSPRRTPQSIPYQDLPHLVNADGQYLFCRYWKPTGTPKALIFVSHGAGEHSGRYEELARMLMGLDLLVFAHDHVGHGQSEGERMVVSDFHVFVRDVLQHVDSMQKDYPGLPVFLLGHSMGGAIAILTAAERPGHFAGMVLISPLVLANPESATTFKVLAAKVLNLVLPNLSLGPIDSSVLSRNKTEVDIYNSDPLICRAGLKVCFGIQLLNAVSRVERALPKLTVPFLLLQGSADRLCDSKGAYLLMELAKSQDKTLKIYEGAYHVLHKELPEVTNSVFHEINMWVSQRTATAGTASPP
Description: Compounds were profiled for MAGL inhibitory activity by determining the enzymatic activity by following the hydrolysis of the natural substrate 2-arachidonoylglycerol resulting in arachidonic acid, which can be followed by mass spectrometry. This assay is hereinafter abbreviated “2-AG assay”.
The 2-AG assay was carried out in 384 well assay plates (PP, Greiner Cat #784201) in a total volume of 20 μL. Compound dilutions were made in 100% DMSO (VWR Chemicals 23500.297) in a polypropylene plate in 3-fold dilution steps to give a final concentration range in the assay from 12.5 μM to 0.8 pM. 0.25 μL compound dilutions (100% DMSO) were added to 9 μL MAGL in assay buffer (50 mM TRIS (GIBCO, 15567-027), 1 mM EDTA (Fluka, 03690-100 mL), 0.01% (v/v) Tween. After shaking, the plate was incubated for 15 min at RT. To start the reaction, 10 μL 2-arachidonoylglycerol in assay buffer was added. The final concentrations in the assay was 50 pM MAGL and 8 μM 2-arachidonoylglyerol. After shaking and 30 min incubation at RT, the reaction was quenched by the addition of 40 μL of ACN containing 4 μM of d8-arachidonic acid. The amount of arachidonic acid was traced by an online SPE system (Agilent Rapidfire) coupled to a triple quadrupole mass spectrometer (Agilent 6460). A C18 SPE cartridge (G9205A) was used in an ACN/water liquid setup. The mass spectrometer was operated in negative electrospray mode following the mass transitions 303.1→259.1 for arachidonic acid and 311.1→267.0 for d8-arachidonic acid. The activity of the compounds was calculated based on the ratio of intensities [arachidonic acid/d8-arachidonic acid].

| SMILES | IC50 [nM] |
| --- | --- |
| CC(C)(C)CS(=O)(=O)N1CC2(CN(C(=O)CC[C@@H]3COC(=O)N3)C2)C1 [Example 98, (4R)-4-[3-[2-(2,2-Dimethylpropyl-sulfonyl)-2,6-diazaspiro[3.3]heptan-6-yl]-3-oxo-propyl]oxazolidin-2-one] | 3370 |
| O=C(CCc1ccn[nH]1)N1CC(OCc2ccc(C(F)(F)F)cc2F)C1 [Example 47, 1-[3-[[2-Fluoro-4-(trifluoromethyl)phenyl]methoxy]azetidin-1-yl]-3-(1H-pyrazol-5-yl)propan-1-one] | 430 |
| O=C1N[C@H](CCC(=O)N2CC(NCc3ccc(C(F)(F)F)cc3)C2)CO1 [Example 155, (4R)-4-[3-Oxo-3-[3-[[4-(trifluoromethyl)phenyl]methyl-amino]azetidin-1-yl]propyl] oxazolidin-2-one] | 284 |
| O=C1N[C@H](CCC(=O)N2CC3(C2)CN(S(=O)(=O)c2ccc(OC(F)(F)F)cc2)C3)CO1 [Example 150, (4R)-4-[3-Oxo-3-[2-[4-(trifluoro-methoxy)phenyl]sulfonyl-2,6-diazaspiro[3.3]heptan-6-yl]propyl] oxazolidin-2-one] | 2140 |
| O=C1CSC[C@H](CCC(=O)N2CC(OCc3ccc(C(F)(F)F)cc3F)C2)N1 [Example 88, (5S)-5-[3-[3-[[2-Fluoro-4-(trifluoromethyl)phenyl]methoxy]azetidin-1-yl]-3-oxo-propyl]thiomorpholin-3-one] | 1300 |
| O=C1N[C@H](CCC(=O)N2CC3(C2)CN(S(=O)(=O)c2ccccc2OC(F)(F)F)C3)CO1 [Example 148, (4R)-4-[3-Oxo-3-[2-[2-(trifluoro-methoxy)phenyl]sulfonyl-2,6-diazaspiro[3.3]heptan-6-yl]propyl]oxazolidin-2-one] | 498 |
| O=C(CC(O)Cc1cnn[nH]1)N1CC(c2ccc(C3(C(F)(F)F)CC3)cc2)C1 (centres unmarked) [Example 69, 3-Hydroxy-4-(1H-triazol-5-yl)-1-[3-[4-[1-(trifluoromethyl)cyclopropyl]phenyl]azetidin-1-yl]butan-1-one] | 122 |
| O=C(CCCc1cnn[nH]1)N1CC(c2ccc(N3CCC(C(F)(F)F)C3)nc2)C1 (racemic) [Example 45, rac-4-(1H-Triazol-5-yl)-1-[3-[6-[3-(trifluoro-methyl)pyrrolidin-1-yl]-3-pyridyl]azetidin-1-yl]butan-1-one] | 321 |
| O=C1N[C@H](CCC(=O)N2CC(c3ccc(N4CCC(O)(C(F)(F)F)C4)nc3)C2)CO1 (single isomer, unassigned) [Example 204, (−)- or (+)-(4R)-4-[3-[3-[6-[3-Hydroxy-3-(trifluoromethyl)pyrrolidin-1-yl]-3-pyridyl]azetidin-1-yl]-3-oxo-propyl]oxazolidin-2-one] | 98 |
| O=C1N[C@H](CCC(=O)N2CC3(CC(Cc4ccc(C(F)(F)F)nn4)C3)C2)CO1 [Example 181, (4R)-4-[3-Oxo-3-[6-[[6-(trifluoro-methyl)pyridazin-3-yl]methyl]-2-azaspiro[3.3]heptan-2-yl]propyl] oxazolidin-2-one] | 227 |
| O=C1CCC(CCC(=O)N2CC(c3ccc(C4(C(F)(F)F)CC4)cc3)C2)N1 (single isomer, unassigned; (-)) [Example 5, (−)-5-[3-Oxo-3-[3-[4-[1-(trifluoromethyl)cyclopropyl]phenyl]azetidin-1-yl]propyl]pyrrolidin-2-one] | 627 |
| O=C1NCC(CCC(=O)N2CC(OCc3ccc(C(F)(F)F)cc3F)C2)N1 (centres unmarked) [Example 215, 4-[3-[3-[[2-Fluoro-4-(trifluoromethyl)phenyl]methoxy]azetidin-1-yl]-3-oxo-propyl]imidazolidin-2-one] | 860 |
| O=C1N[C@H](CCC(=O)N2CC3(CCN(Cc4ccc(C(F)(F)F)nc4)CC3)C2)CO1 [Example 196, (4R)-4-[3-Oxo-3-[7-[[6-(trifluoro-methyl)-3-pyridyl]methyl]-2,7-diazaspiro [3.5]nonan-2-yl]propyl] oxazolidin-2-one] | 507 |
| O=C1N[C@H](CCC(=O)N2CC(c3ccc(N4CCC(O)(C(F)(F)F)C4)nc3)C2)CO1 (stereo partly drawn) [Example 146, (4R)-4-[3-[3-[6-[3-Hydroxy-3-(trifluoro-methyl)pyrrolidin-1-yl]-3-pyridyl]azetidin-1-yl]-3-oxo-propyl] oxazolidin-2-one] | 137 |

Stronger by IC50, values ahead:

| IC50 [nM] | SMILES |
| --- | --- |
| 84 | O=C1NC(CCC(=O)N2CC3(CCC(Cc4ccc(C(F)(F)F)nc4)C3)C2)CO1 (single isomer, unassigned) [Example 211, (+)- or (−)-(4R)-4-[3-Oxo-3-[6-[[6-(trifluoromethyl)-3-pyridyl]methyl]-2-azaspiro[3.4]octan-2-yl]propyl]oxazolidin-2-one] |
| 73 | Cc1cc(C)n(-c2ccc(C3CN(C(=O)CC[C@@H]4COC(=O)N4)C3)cc2)n1 [Example 145, (4R)-4-[3-[3-[4-(3,5-Dimethyl-pyrazol-1-yl)phenyl]azetidin-1-yl]-3-oxo-propyl]oxazolidin-2-one] |
| 65 | O=C1N[C@H](CCC(=O)N2CC(c3ccc(N4CC(C(F)(F)F)C4)nc3)C2)CO1 [Example 161, (4R)-4-[3-Oxo-3-[3-[6-[3-(trifluoro-methyl)azetidin-1-yl]-3-pyridyl]azetidin-1-yl]propyl]oxazolidin-2-one] |
| 61 | O=C(CCCc1cnn[nH]1)N1CC(C#Cc2cccc(Cl)c2)C1 [Example 44, 1-[3-[2-(3-Chlorophenyl)ethynyl]azetidin-1-yl]-4-(1H-triazol-5-yl)butan-1-one] |
| 58 | O=C(CCCc1cnn[nH]1)N1CC(OCc2ccc(C(F)(F)F)cc2F)C1 [Example 39, 1-[3-[[2-Fluoro-4-(trifluoromethyl)phenyl]methoxy]azetidin-1-yl]-4-(1H-triazol-5-yl)butan-1-one] |
| 54 | O=C1NC(COC(=O)N2CC(c3ccc(N4CCC(C(F)(F)F)C4)nc3)C2)CO1 (single isomer, unassigned) [Example 86, (−)- or (+)-[(4S)-2-Oxooxazolidin-4-yl]methyl 3-[6-[3-(trifluoromethyl)pyrrolidin-1-yl]-3-pyridyl]azetidine-1-carboxylate] |
| 44 | CS(=O)(=O)c1ccc(C(c2ccccc2)C2CCN(C(=O)CC[C@@H]3COC(=O)N3)CC2)cc1 (single isomer, unassigned) [Example 83, (+)- or (−)-(4R)-4-[3-[4-[(4-Methyl-sulfonylphenyl)-phenyl-methyl]-1-piperidyl]-3-oxo-propyl]oxazolidin-2-one] |
| 36 | O=C1N[C@H](COC(=O)N2CC(OCc3ccc(C(F)(F)F)cc3F)C2)CO1 [Example 54, [(4S)-2-Oxooxazolidin-4-yl]methyl 3-[[2-fluoro-4-(trifluoromethyl)phenyl]methoxy] azetidine-1-carboxylate] |
| 22 | O=C1N[C@H](CCC(=O)N2CC3(CCC(Oc4ccc(C(F)(F)F)nn4)CC3)C2)CO1 [Example 136, (4R)-4-[3-Oxo-3-[7-[6-(trifluoro-methyl)pyridazin-3-yl]oxy-2-azaspiro[3.5]nonan-2-yl]propyl] oxazolidin-2-one] |
| 13 | CN(CCc1cnn[nH]1)C(=O)N1CC(OCc2ccc(C(F)(F)F)cc2F)C1 [Example 66, 3-[[2-Fluoro-4-(trifluoromethyl)phenyl]methoxy]-N-methyl-N-[2-(1H-triazol-5-yl)ethyl]azetidine-1-carboxamide] |
| 7 | O=C1N[C@H](CCC(=O)N2CC(OCc3ccc(C(F)(F)F)cc3F)C2)CO1 [Example 20, (4R)-4-[3-[3-[[2-Fluoro-4-(trifluoromethyl)phenyl]methoxy]azetidin-1-yl]-3-oxo-propyl]oxazolidin-2-one] |
| 5 | O=C1N[C@H](CCC(=O)N2CC(c3ccc(N4CCC(C(F)(F)F)C4)cc3)C2)CO1 (stereo partly drawn) [Example 135, (4R)-4-[3-Oxo-3-[3-[4-[3-(trifluoro-methyl)pyrrolidin-1-yl]phenyl]azetidin-1-yl]propyl] oxazolidin-2-one] |
| 5 | CC(C)(C)c1ccc(C2CN(C(=O)CCC3CCC(=O)N3)C2)cc1 (single isomer, unassigned; (+)) [Example 4, (+)-5-[3-[3-(4-tert-Butylphenyl)azetidin-1-yl]-3-oxo-propyl]pyrrolidin-2-one] |
| 3 | O=C1N[C@H](CCC(=O)N2CC(c3ccc(N4CCC(C(F)(F)F)C4)c(F)c3)C2)CO1 (stereo partly drawn) [Example 129, (4R)-4-[3-[3-[3-Fluoro-4-[3-(trifluoromethyl)pyrrolidin-1-yl]phenyl]azetidin-1-yl]-3-oxo-propyl]oxazolidin-2-one] |
| 1 | CC(C)(Oc1ccc(C2CN(C(=O)CC[C@@H]3COC(=O)N3)C2)cc1)C(F)(F)F [Example 25, (4R)-4-[3-Oxo-3-[3-[4-(2,2,2-trifluoro-1,1-dimethyl-ethoxy)phenyl]azetidin-1-yl]propyl]oxazolidin-2-one] |
